Measured values as given in US4687843A, “Esterified propoxylated glucose compositions” (Amerchol Corporation, priority 1986, dated 1987).

Legend:
rabbits (eye) = conditions: rabbit, in vivo
rabbits (dermal) = conditions: rabbit, in vivo
[1] = in vivo

Q: For PPG-20 Methyl Glucose Ether Distearate, which Draize test score (rabbits (eye)) is on record?
A: negligible

Q: And the Eye irritation (rabbits (eye))?
A: Practically non-irritating

Q: And the Primary dermal irritant (rabbits (dermal))?
A: not a primary dermal irritant

Q: And the Primary dermal irritation (rabbits (dermal))?
A: Not a primary dermal irritant

Q: What about the “Comedogenic Assay” value [1] of the same substance?
A: Non-comedogenic
